Test results as given in patent US5084462A, “4-quinoline carboxylic acid derivatives useful as immunosuppressive agents” (The Du Pont Merck Pharmaceutical Company, priority 1990, dated 1992).
Read-outs that look alike come from different tables or passages of the source.

Assays:
[1] = tested on: contact sensitivity response to 2,4-dinitrofluorobenzene (DNFB); experiment: Contact sensitivity response to 2,4-dinitrofluorobenzene (DNFB) in mice; assay type: in vivo, Balb/c female mice; details: for inhibition in vivo at 1 mg/kg: 1.0 mg/kg oral; for inhibition in vivo at 0.4 mg/kg: read-out: % Suppression, Table 2, ear swelling, 0.4 mg/kg oral; for inhibition in vivo at 2 mg/kg: read-out: % Suppression, Table 2, ear swelling, 2.0 mg/kg oral
Description: This is an antigen-specific T-cell mediated inflammatory response that represents delayed-type hypersensitivity reactions seen in both humans and other mammals.
Balb/c female mice (.perspectiveto.20g, Charles River) were sensitized on the shaved abdomen with 25 μl of 0.5% 2,4-dinitrofluorobenzene ([…], Eastman Kodak Co.) in a vehicle of 4:1 acetone:olive oil on days 0 and 1. Mice were ear challenged with 20 μl of 0.2% DNFB in a vehicle of 4:1 acetone:olive oil on day 5. A constant area of the ears was measured immediately before challenge and 24 hours later with an engineer's micrometer. Ear swelling was expressed as the difference in ear thickness before and after challenge in units of 10^-4 inches±SEM. Percent suppression was calculated as: [formula] […] Negative controls were not sensitized on days 0 and 1 but were ear challenged on day 5. Ten mice were used per group.

[2] = tested on: human mixed lymphocyte reaction; experiment: Human mixed lymphocyte reaction (3H-thymidine incorporation); assay type: cell-based; details: Table 4, human PBMC of two donors, 6 days
Text: Contact sensitivity to DNFB has teen extensively studied and characterized in the mouse to determine the regulatory mechanisms involved in cell mediated immune responses (Claman, et al., Immunol Rev 50:105, 1980). This is an antigen-specific T-cell mediated inflammatory response that represents delayed-type hypersensitivity reactions seen in both humans and other mammals. The primary use of the human mixed lymphocyte reaction is for the determination of transplantation compatibility between the donor (graft) and the recipient (Park and Good, p. 71. In Yunis, et al., Tissue typing and organ transplantation. 1973 Academic Press Inc., N.Y.).
Blood was obtained by venipuncture from two nonrelated human donors. Peripheral blood mononuclear cells (PBMC) were isolated from these samples by using the Leuco Prep procedure (Becton-Dickinson). PBMC were washed twice in phosphate buffered saline (without calcium and magnesium) and the separate cell isolations were adjusted to the appropriate concentrations in media (RPMI 1640) supplemented with 10% human AB serum and […] gentamicin. Cells from donor A (2×10^5) were incubated with cells from donor B (2×10^5) in 96 well round bottom microliter plates at 37° C., 5% CO2 for 6 days. Eighteen hours prior to harvesting cells from the plates, all wells were pulsed with 1 μCi of ^3 H-thymidine. Cells from the plates were harvested on day 6 and ^3 H-thymidine incorporation was determined using a scintillation counter.

[3] = tested on: adjuvant-induced arthritis; experiment: Adjuvant-induced arthritis in rats; assay type: in vivo, Male Lewis rats; details: for ED50: Rattus norvegicus, 432 h, adjuvant-induced arthritis; for Non-Injected Hind-Paw Volume / % Suppression: day 18; for % Suppression: Table 5, non-injected hind paw
Description: Rat adjuvant-induced arthritis represents a systemic inflammatory disease with bone and cartilage changes similar to that observed in rheumatoid arthritis, but in an accelerated time span (Pearson, Arth Rheum 7:80, 1964).
Male Lewis rats (Charles River) weighing 160-210 grams were injected subcutaneously with 0.1 ml of Freund's Complete Adjuvant containing 5 mg of M. butyricum/ml of paraffin oil (Difco Laboratories) into the plantar region of the right hind paw. Paraffin oil was injected for non-arthritic controls. Ten rats were used per group. Compounds were prepared in 0.25% Methocel® (Dow Chemical Co) with one drop of Tween® 80 per 10 ml of Methocel®. Animals were dosed every day beginning on the day of paw injection until day 18. The weight of each animal was recorded every other day beginning on the day of the paw injections. On day 18 the animals were weighed, and the non-injected hind paw volume was measured using a Ugo Basile Volume Differential Plethysmometer.

[4] = Table 5, 10 mg/kg daily to day 18
[5] = Mus musculus, po, 24 h, read-out: % Suppression, Table 2, ear swelling, 10.0 mg/kg oral
[6] = Mus musculus, po, 24 h, read-out: % Suppression, Table 2, ear swelling, 20.0 mg/kg oral
[7] = Mus musculus, po, 24 h, Table 3, ear swelling, 20.0 mg/kg oral, read-out: % Suppression

C[C@@H]1C[C@H]2[C@@H]3CCC4=CC(=O)C=C[C@]4(C)[C@@]3(F)[C@@H](O)C[C@]2(C)[C@@]1(O)C(=O)CO [Dexamethasone, reference compound]
inhibition in vivo at 0.2 mg/kg ([1]; Mus musculus, po, 24 h, Table 2, ear swelling, 0.2 mg/kg oral, read-out: % Suppression): 28.8% | inhibition in vivo at 1 mg/kg ([1]; Mus musculus, po, 24 h, Table 2, ear swelling, read-out: % Suppression): 44.3% | inhibition in vivo at 5 mg/kg ([1]; Mus musculus, po, 24 h, Table 2, ear swelling, 5.0 mg/kg oral, read-out: % Suppression): 68.6% | inhibition in vivo at 10 mg/kg ([1]; Mus musculus, po, 24 h, Table 2, ear swelling, 10.0 mg/kg oral, read-out: % Suppression): 79.9% | inhibition in vivo at 1 mg/kg ([1]; Mus musculus, po, 24 h, Table 3, ear swelling, read-out: % Suppression): 43.8% | ED50 ([1]; Mus musculus, Table 2, suppression of ear swelling, oral, days -2 through 6, read-out: ED50): 1.5 mg/kg | Ear Swelling (units ± SEM), increase in ear thickness from day 5 to day 6 ([1]; Table 2, 0.2 mg/kg oral): 52.95 ± 3.39 10^-4 inches | Ear Swelling (units ± SEM), increase in ear thickness from day 5 to day 6 ([1]; Table 2, 1.0 mg/kg oral): 41.60 ± 2.46 10^-4 inches | Ear Swelling (units ± SEM), increase in ear thickness from day 5 to day 6 ([1]; Table 2, 5.0 mg/kg oral): 23.79 ± 2.71 10^-4 inches | Ear Swelling (units ± SEM), increase in ear thickness from day 5 to day 6 ([1]; Table 2, 10.0 mg/kg oral): 15.50 ± 2.10 10^-4 inches | Ear Swelling (units ± SEM), increase in ear thickness from day 5 to day 6 ([1]; Table 3, 1.0 mg/kg oral): 42.20 ± 2.61 10^-4 inches

Cc1c(-c2ccc(-c3ccccc3)cc2)nc2cccc(Cl)c2c1C(=O)[O-].[Na+] [Example 1, Sodium 2-(1,1'-Biphenyl-4-yl)-5-chloro-3-methyl-quinoline-4-carboxylate]
IC50 [2]: 9.6 nM | ED50 ([3]; Table 5 footnote): 21 mg/kg | Weight Gain [3, 4]: -14.0 ± 4.2 g | Non-Injected Hind-Paw Volume ([3]; Table 5, 10 mg/kg daily): 1.87 ± 0.08 mL | Weight Gain ([3]; Table 5, 17.5 mg/kg daily to day 18): 2.8 ± 5.3 g | Non-Injected Hind-Paw Volume ([3]; Table 5, 17.5 mg/kg daily): 1.72 ± 0.08 mL | Weight Gain ([3]; Table 5, 25.0 mg/kg daily to day 18): 20.6 ± 6.3 g | Non-Injected Hind-Paw Volume ([3]; Table 5, 25.0 mg/kg daily): 1.34 ± 0.10 mL | % Suppression ([3]; 10 mg/kg daily): 1.4% | % Suppression ([3]; 17.5 mg/kg daily): 20.8% | % Suppression ([3]; 25.0 mg/kg daily): 70.6% | ED50 ([1]; Mus musculus, po): 3.5 mg/kg | inhibition in vivo at 0.4 mg/kg ([1]; Mus musculus, po, 24 h): 11% | inhibition in vivo at 2 mg/kg ([1]; Mus musculus, po, 24 h): 23.4% | inhibition in vivo at 10 mg/kg [1, 5]: 92.7% | inhibition in vivo at 20 mg/kg [1, 6]: 93.9% | Ear Swelling (units ± SEM), increase in ear thickness from day 5 to day 6 ([1]; Table 2, 0.4 mg/kg oral): 66.05 ± 4.32 10^-4 inches | Ear Swelling (units ± SEM), increase in ear thickness from day 5 to day 6 ([1]; Table 2, 2.0 mg/kg oral): 56.94 ± 4.80 10^-4 inches | Ear Swelling (units ± SEM), increase in ear thickness from day 5 to day 6 ([1]; Table 2, 10.0 mg/kg oral): 6.10 ± 0.75 10^-4 inches | Ear Swelling (units ± SEM), increase in ear thickness from day 5 to day 6 ([1]; Table 2, 20.0 mg/kg oral): 5.20 ± 1.17 10^-4 inches

Cc1c(-c2ccc(-c3ccccc3F)cc2)nc2ccc(F)cc2c1C(=O)[O-].[Na+] [Example 2, Sodium 2-(2'-Fluoro-1,1'-biphenyl-4-yl)-6-fluoro-3-methylquinoline-4-carboxylate]
IC50 [2]: 25 nM | ED50 ([3]; Table 5 footnote): < 10 mg/kg | Weight Gain ([3]; Table 5, 2.0 mg/kg daily to day 18): -1.5 ± 3.6 g | Non-Injected Hind-Paw Volume ([3]; Table 5, 2.0 mg/kg daily): 1.62 ± 0.05 mL | Weight Gain [3, 4]: 65.6 ± 5.2 g | Non-Injected Hind-Paw Volume ([3]; Table 5, 10 mg/kg daily): 1.15 ± 0.02 mL | % Suppression ([3]; 2.0 mg/kg daily): 34.5% | % Suppression ([3]; 10 mg/kg daily): 96.2% | Toxicity ([3]; Table 5 footnote, 25.0 mg/kg daily): Toxic by day 7 | ED50 ([1]; Mus musculus, po): 0.95 mg/kg | inhibition in vivo at 0.4 mg/kg ([1]; Mus musculus, po, 24 h): 30.2% | inhibition in vivo at 2 mg/kg ([1]; Mus musculus, po, 24 h): 66.1% | inhibition in vivo at 10 mg/kg [1, 5]: 92.3% | inhibition in vivo at 20 mg/kg [1, 6]: 94.5% | Ear Swelling (units ± SEM), increase in ear thickness from day 5 to day 6 ([1]; Table 2, 0.4 mg/kg oral): 51.95 ± 2.33 10^-4 inches | Ear Swelling (units ± SEM), increase in ear thickness from day 5 to day 6 ([1]; Table 2, 2.0 mg/kg oral): 25.61 ± 3.39 10^-4 inches | Ear Swelling (units ± SEM), increase in ear thickness from day 5 to day 6 ([1]; Table 2, 10.0 mg/kg oral): 6.40 ± 1.09 10^-4 inches | Ear Swelling (units ± SEM), increase in ear thickness from day 5 to day 6 ([1]; Table 2, 20.0 mg/kg oral): 4.75 ± 1.20 10^-4 inches

Cc1c(-c2ccc(Oc3ccccc3)cc2)nc2ccc(F)cc2c1C(=O)O [Example 3]
inhibition in vivo at 20 mg/kg [1, 7]: 83.5% | Ear Swelling (units ± SEM), increase in ear thickness from day 5 to day 6 ([1]; Table 3, 20.0 mg/kg oral): 14.25 ± 1.49 10^-4 inches

Cc1c(-c2ccc(-c3ccc(Br)cc3)cc2)nc2ccc(F)cc2c1C(=O)O [Example 4]
inhibition in vivo at 20 mg/kg [1, 7]: 87% | Ear Swelling (units ± SEM), increase in ear thickness from day 5 to day 6 ([1]; Table 3, 20.0 mg/kg oral): 11.80 ± 1.03 10^-4 inches

Cc1ccc2nc(-c3ccc(-c4ccccc4)cc3)c(C)c(C(=O)O)c2c1 [Example 5]
inhibition in vivo at 20 mg/kg [1, 7]: 53.4% | Ear Swelling (units ± SEM), increase in ear thickness from day 5 to day 6 ([1]; Table 3, 20.0 mg/kg oral): 35.47 ± 2.31 10^-4 inches

Cc1c(-c2ccc(SC(C)C)cc2)nc2ccc(F)cc2c1C(=O)O [Example 6]
inhibition in vivo at 20 mg/kg [1, 7]: 21.1% | Ear Swelling (units ± SEM), increase in ear thickness from day 5 to day 6 ([1]; Table 3, 20.0 mg/kg oral): 58.20 ± 4.63 10^-4 inches
